Measured values reported in publication PMC5331433, “Ustiloxin G, a New Cyclopeptide Mycotoxin from Rice False Smut Balls” (Toxins, 2017).

What was measured:
BGC-823 = experiment: Cytotoxicity, MTT assay, BGC-823; type: cell-based, human; conditions: 24 h treatment, absorbance 570 nm, three replicates
Description: (§1) Cytotoxicity of the compounds were tested against human carcinoma cells using the microculture methyl-thiazolyl-tetrazolium (MTT) assay as described previously. Briefly, the cell lines were maintained in a humidified atmosphere containing 5% CO2 at 37 °C. For preparing working solution, 1 μmol of each purified ustiloxin was dissolved in 10 mL of ultrapure water to obtain the stock solution (100 μM), which was further diluted to a series of concentrations (50, 25, 12.5, 6.25, 3.125, 1, 0.1, 1 × 10^−2, 1 × 10^−3, 1 × 10^−4, 1 × 10^−5 μM) with ultrapure water. Normally, 200 μL of the cell suspensions (5 × 10^4 cells/mL) was plated in 96-well culture plates at 37 °C. After 12 h, 20 μL of working solution was added to each well respectively and cultured at 37 °C for 24 h. Then, MTT was dissolved in saline to 5 mg/mL, and 20 μL of this solution was added to each well. After 4 h, the medium was removed, and then 100 μL of DMSO was added to dissolve any formazan crystals formed. Absorbance was then determined at 570 nm. The cell lines of colon cancer cells (HCT-116), non-small-cell lung carcinoma cells (NCI-H1650), gastric cancer cells (BGC-823), and liver hepatocellular carcinoma cells (HepG2) were tested for all isolated compounds. In addition, lung adenocarcinoma cells (A549) were tested on ustiloxins A (2), B (3), and G (1), and melanoma cells (A375) were tested on ustiloxin G (1). Ultrapure water and taxol were used as the negative and positive controls, respectively. All experiments were performed with three replicates.

A549 = experiment: Cytotoxicity, MTT assay, A549; type: cell-based, human; conditions: 24 h treatment, absorbance 570 nm, three replicates
Description: as §1

HCT116 = experiment: Cytotoxicity, MTT assay, HCT116; type: cell-based, human; conditions: 24 h treatment, absorbance 570 nm, three replicates
Description: as §1

[1] = system: rice (Oryza sativa) seeds, germ; experiment: Inhibition of germ elongation of rice seeds; conditions: 48 h, 25 °C, dark, mean of triplicate ± SD
Description: (§2) Phytotoxicity of the compounds was evaluated by their inhibitory activities on the radicle and germ elongation of rice (Oryza sativa) seeds. Two varieties (Lijiang and Zhonghua 11) of the seeds, which were obtained from Prof. Zejian Guo (Department of Plant Pathology and collected in 2015, China Agricultural University) were used.
(§3) The bioassay was performed using the method described previously with some modifications. Briefly, five 3-day germinated rice seeds of each rice variety were sown onto each well of a 24-well plate, containing 200 μL of working solution. For preparing working solution, 1 mg of each purified compound was dissolved in 1 mL of ultrapure water to obtain the stock solution (1 mg/mL), which was further diluted to a series of concentrations (200, 100, 50, 20, and 10 μg/mL) with ultrapure water. The ultrapure water was used as the negative control, and glyphosate (N-(phosphonomethyl)glycine) at the same concentrations as the positive control. Plates were incubated in a moist chamber at 25 °C in the dark. The length of each radicle or germ was measured after treatment for 48 h. The inhibition of radicle or germ elongation was calculated as follows: Inhibition (%) = [(Lc − Lt)/Lc] × 100, where Lc is the radicle or germ length of the control group, and Lt is the length of the treated group.
(§4) All experiments were performed with three replicates, and the results were represented by their mean values and the standard deviations (SD). The data were carried out using analysis of variance (one-way ANOVA) to detect significant differences by PROC ANOVA of SAS version 8.2.

A375 = experiment: Cytotoxicity, MTT assay, A375; type: cell-based, human; conditions: 24 h treatment, absorbance 570 nm, three replicates
Description: as §1, with “Ultrapure water and taxol were used as the negative and positive controls, respectively. All experiments were performed with three replicates.” left out

[2] = system: rice (Oryza sativa) seeds, radicle; experiment: Inhibition of radicle elongation of rice seeds; conditions: 48 h, 25 °C, dark, mean of triplicate ± SD
Description: as §2, §3, §4

rice seedlings = experiment: Abnormal swelling of roots and germs of rice seedlings; set-up: species or system Oryza sativa; conditions: observation in words; Figure 3B shows 200 µg/mL of ustiloxin G, variety Lijiang
Description: as §3

HepG2 = experiment: Cytotoxicity, MTT assay, HepG2; type: cell-based, human; conditions: 24 h treatment, absorbance 570 nm, three replicates
Description: as §1

NCI-H1650 = experiment: Cytotoxicity, MTT assay, NCI-H1650; type: cell-based, human; conditions: 24 h treatment, absorbance 570 nm, three replicates
Description: as §1

Structure (SMILES): CC[C@@]1(C)Oc2cc(c([S+]([O-])CCO)cc2O)[C@@H](O)[C@H](NC)C(=O)N[C@@H](C(C)C)C(=O)N[C@@H]1C(=O)NCC(=O)O (stereo partly drawn) [Ustiloxin G (1), ustiloxin G]
- IC50 (BGC-823; gastric cancer cells): > 50000 nM
- IC50 (A549; lung adenocarcinoma cells): 36500 nM
- IC50 (HCT116; colon cancer cells): > 50000 nM
- Inhibition Ratio (%) Seed Germ Var. Lijiang ([1]; 10 µg/mL): 2.74 ± 4.76 l %
- Inhibition Ratio (%) Seed Germ Var. Zhonghua 11 ([1]; 10 µg/mL): 14.11%
- Inhibition Ratio (%) Seed Germ Var. Lijiang ([1]; 20 µg/mL): 8.89%
- Inhibition Ratio (%) Seed Germ Var. Zhonghua 11 ([1]; 20 µg/mL): 14.68%
- Inhibition Ratio (%) Seed Germ Var. Lijiang ([1]; 50 µg/mL): 27.96 ± 3.32 f %
- Inhibition Ratio (%) Seed Germ Var. Zhonghua 11 ([1]; 50 µg/mL): 36.29%
- Inhibition Ratio (%) Seed Germ Var. Lijiang ([1]; 100 µg/mL): 36.95 ± 5.23 e %
- Inhibition Ratio (%) Seed Germ Var. Zhonghua 11 ([1]; 100 µg/mL): 39.33%
- Inhibition Ratio (%) Seed Germ Var. Lijiang ([1]; 200 µg/mL): 65.01%
- Inhibition Ratio (%) Seed Germ Var. Zhonghua 11 ([1]; 200 µg/mL): 50.45%
- IC50 (A375; melanoma cells): 22500 nM
- Inhibition Ratio (%) Seed Radicle Var. Lijiang ([2]; 10 µg/mL): 12.56%
- Inhibition Ratio (%) Seed Radicle Var. Zhonghua 11 ([2]; 10 µg/mL): 27.27%
- Inhibition Ratio (%) Seed Radicle Var. Lijiang ([2]; 20 µg/mL): 17.00%
- Inhibition Ratio (%) Seed Radicle Var. Zhonghua 11 ([2]; 20 µg/mL): 31.67%
- Inhibition Ratio (%) Seed Radicle Var. Lijiang ([2]; 50 µg/mL): 37.64 ± 1.21 g %
- Inhibition Ratio (%) Seed Radicle Var. Zhonghua 11 ([2]; 50 µg/mL): 54.14 ± 4.20 d %
- Inhibition Ratio (%) Seed Radicle Var. Lijiang ([2]; 100 µg/mL): 90.33%
- Inhibition Ratio (%) Seed Radicle Var. Zhonghua 11 ([2]; 100 µg/mL): 90.16 ± 3.62 a %
- Inhibition Ratio (%) Seed Radicle Var. Lijiang ([2]; 200 µg/mL): 95.19 ± 1.92 a %
- Inhibition Ratio (%) Seed Radicle Var. Zhonghua 11 ([2]; 200 µg/mL): 93.40 ± 1.91 a %
- abnormal swelling of the roots and germs of rice seedlings (rice seedlings): abnormal swelling
- IC50 (HepG2; liver hepatocellular carcinoma cells): > 50000 nM
- IC50 (NCI-H1650; non-small-cell lung carcinoma cells): > 50000 nM

Structure (SMILES): CC(=O)O[C@H]1C(=O)[C@@]2(C)[C@H]([C@H](OC(=O)c3ccccc3)[C@]3(O)C[C@H](OC(=O)[C@H](O)[C@@H](NC(=O)c4ccccc4)c4ccccc4)C(C)=C1C3(C)C)[C@]1(OC(C)=O)CO[C@@H]1C[C@@H]2O [Taxol, reference compound]
- IC50 (BGC-823; Homo sapiens, BGC-823, gastric cancer cells): 0.107 nM
- IC50 (A549; Homo sapiens, A549, lung adenocarcinoma cells): 23 nM
- IC50 (HCT116; Homo sapiens, HCT-116, colon cancer cells): 1.9 nM
- IC50 (A375; Homo sapiens, A-375, melanoma cells): 22 nM
- IC50 (HepG2; Homo sapiens, HepG2, liver hepatocellular carcinoma cells): 14.6 nM
- IC50 (NCI-H1650; Homo sapiens, NCI-H1650, non-small-cell lung carcinoma cells): 1100 nM
